Source: patent US20210253562A1, “ACYLSUFONAMIDE COMPOUNDS USEFUL AS EP3 RECEPTOR ANTAGONISTS” (Janssen Pharmaceutica NV, priority 2018, published 2021)
Like-named read-outs stand apart in the source and are kept apart here.

What was measured:
[1] = target: T1, CHO cells over-expressing the EP3 receptor (Homo sapiens, UniProt P43115); experiment: CHO cell cAMP assay; EP3 cAMP antagonist dose response (sulprostone reference), HTRF; assay type: cell-based; conditions: sulprostone 700 nM (EC80) and FSK 2 μM (EC70); read-out: CHO_cAMP IC50
T1 construct: expressed in transfected cells; host or cells: CHO cells
T1 sequence (P43115 1-390): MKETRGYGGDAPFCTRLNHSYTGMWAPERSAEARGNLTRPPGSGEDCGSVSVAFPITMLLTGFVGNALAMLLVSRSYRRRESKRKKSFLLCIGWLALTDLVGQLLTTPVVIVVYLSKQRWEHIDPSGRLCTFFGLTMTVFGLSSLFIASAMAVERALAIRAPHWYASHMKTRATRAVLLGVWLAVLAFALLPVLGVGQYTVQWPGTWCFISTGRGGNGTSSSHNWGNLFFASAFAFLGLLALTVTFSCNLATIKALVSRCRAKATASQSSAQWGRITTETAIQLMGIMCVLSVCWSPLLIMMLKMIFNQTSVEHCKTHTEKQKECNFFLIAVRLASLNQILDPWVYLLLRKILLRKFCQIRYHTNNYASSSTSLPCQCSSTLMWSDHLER
Method: Biological Example 2: CHO Cell cAMP Assay
This assay monitored the cAMP generation in CHO cells over-expressing the EP3 receptor in the presence or absence of antagonist stimulated with Forskolin (FSK, CAS No. 66428-89-5) and a known EP3 Agonist (sulprostone, CAS No. 60325-46-4). For detection, a homogeneous competitive immunoassay (Time Resolved Fluorescence Energy Transfer (hTR-FRET)) was used.
Cells (6K cells per well) were plated in Poly-D-Lysine coated plates the day before the assay was to be run and were incubated at 37° C. One hour before the assay the media was removed and replaced with assay buffer (500 mL HBSS (+Ca)+2.5 mL 1M HEPES+6.66 mL 7.5% BSA) (starved at 37° C.). At the start of the assay the buffer was removed from the cells and replaced with buffer containing test compound(s). Sulprostone at an EC80 dose (700 nM) and FSK at an EC70 dose (2 μM) were added to initiate the reaction (37° C. for 30 minutes).
FSK increases cAMP production and sulprostone decreases cAMP production produced by FSK. In this assay, EP3 antagonists will increase the cAMP to the level of cAMP generated by FSK alone.
The reaction was terminated with the addition of cAMP detection reagents (labeled cAMP and labeled cAMP antibody in lysis buffer (HTRF reagent, which utilizes a cryptate-labeled anti-cAMP and d2-labeled cAMP-d2 is an HTRF acceptor fluorophore)). Approximately one hour later the plates were read on an Envision (Perkin Elmer) in HTRF mode. Well results were calculated based on a ratio of counts at 665 nm and 615 nm (data output was a calculation of the ratio: (read @665 nm/read @ 615 nm)*1000. For test compounds dosed serially, well results were converted to nM cAMP using a cAMP standard run on each plate. nM cAMP from a set of wells dosed with test compound(s) were plotted. nM cAMP was calculated for each well from a standard curve located on each plate (P1-12 and P13-24) by first calculating the slope and deriving the intercept(b):
[formula] NScAMP_s tan dard_cruve=m(nM cAMP_s tan dard_curve)+b
NSP, NSN, NSsample were converted to nM cAMP using the following equation: […]
IC50 values were determined from a […] (Hill equation) of a single 11-point compound dosing. A best-fit curve was determined by the minimum sum of squares method plotting cAMP produced vs compound concentration.

[2] = target: T2, EP3 membrane (EP3 receptor) (Homo sapiens, UniProt P43115); experiment: [3H]-PGE2 binding; EP3 competition binding (SPA)
T2 construct: purchased Millipore HTS092M
T2 sequence (P43115 1-390): T1 sequence (P43115 1-390)
Procedure, shortened: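 Ki derived from one-site nonlinear regression of scintillation proximity counts after 2 h room-temperature equilibration. Serially diluted (1:3) compounds competed against [3H]-PGE2 (2 nM) for EP3 receptor membranes (2 μg/well) in pH 7.4 Tris buffer with 10 mM MgCl2, 1 mM EDTA, 0.1% DMSO.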

| Compound | IC50 [1] [nM] | Ki [2] [nM] | Ki ([2]; unit nM) [nM] |
| --- | --- | --- | --- |
| COc1ccc(S(=O)(=O)NC(=O)CC/C=C2\CCCc3cnn(Cc4ccc(Cl)cc4Cl)c32)cc1 [Compound #30, (E)-4-(1-(2,4-dichlorobenzyl)-1,4,5,6-tetrahydro-7H-indazol-7-ylidene)-N-((4-methoxyphenyl)sulfonyl)butanamide] | 35 | 26 | – |
| O=C(NS(=O)(=O)c1ccc(Cl)cc1)OC/C=C1/c2c(cnn2Cc2ccc(Cl)cc2Cl)CCC1F (stereo not drawn) [Compound #50, (Z)-2-(1-(2,4-dichlorobenzyl)-6-fluoro-1,4,5,6-tetrahydro-7H-indazol-7-ylidene)ethyl ((4-chlorophenyl)sulfonyl)carbamate] | 75 | 29 | – |
| O=C(NC/C=C1\CC(F)(F)Cc2cnn(-c3cccc(C(F)(F)F)c3)c21)NS(=O)(=O)c1ccc(Cl)cc1 [Compound #70, (E)-4-chloro-N-((2-(5,5-difluoro-1-(3-(trifluoromethyl)phenyl)-1,4,5,6-tetrahydro-7H-indazol-7-ylidene)ethyl)carbamoyl)benzenesulfonamide] | 8200 | 1000 | – |
| O=C(C/C=C1\CCCc2cnn(Cc3ccc(Cl)cc3Cl)c21)NS(=O)(=O)c1cc2ccccc2o1 [Compound #26, (E)-N-(benzofuran-2-ylsulfonyl)-3-(1-(2,4-dichlorobenzyl)-1,4,5,6-tetrahydro-7H-indazol-7-ylidene)propenamide] | 699 | 85 | – |
| O=C(NC/C(F)=C1/CCCc2cnn(Cc3ccc(Cl)cc3Cl)c21)NS(=O)(=O)c1cc(Cl)c(Cl)s1 [Compound #45, (E)-4,5-dichloro-N-((2-(1-(2,4-dichlorobenzyl)-1,4,5,6-tetrahydro-7H-indazol-7-ylidene)-2-fluoroethyl)carbamoyl)thiophene-2-sulfonamide] | 6700 | 1300 | – |
| O=C(CC/C(F)=C1\CCCc2cnn(Cc3ccc(Cl)cc3Cl)c21)NS(=O)(=O)c1cc(Cl)c(Cl)s1 [Compound #56, (Z)-4-(1-(2,4-dichlorobenzyl)-1,4,5,6-tetrahydro-7H-indazol-7-ylidene)-N-((4,5-dichlorothiophen-2-yl)sulfonyl)-4-fluorobutanamide] | 4 | 1 | – |
| O=C(CC/C(F)=C1\COCc2cnn(Cc3ccc(Cl)cc3Cl)c21)NS(=O)(=O)c1cc(Cl)c(Cl)s1 [Compound #61, (E)-4-(1-(2,4-dichlorobenzyl)-1,4-dihydropyrano[4,3-c]pyrazol-7(6H)-ylidene)-N-((4,5-dichlorothiophen-2-yl)sulfonyl)-4-fluorobutanamide] | 17 | 7 | – |
| O=C(C/C=C1\CCCc2cnn(Cc3ccc(Cl)cc3Cl)c21)NS(=O)(=O)c1ccc(Cl)s1 [Compound #17] | 74 | 19 | – |
| O=C(NC/C=C1\CCCc2cnn(-c3cccc(-c4ccc(F)cc4)c3)c21)NS(=O)(=O)c1cc(Cl)c(Cl)s1 [Compound #76, (E)-4,5-dichloro-N-((2-(1-(4′-fluoro-[1,1′-biphenyl]-3-yl)-1,4,5,6-tetrahydro-7H-indazol-7-ylidene)ethyl)carbamoyl)thiophene-2-sulfonamide] | 9 | 2 | – |
| O=C(NS(=O)(=O)c1cc(Cl)c(Cl)s1)OC/C=C1\COCc2cnn(Cc3ccc(Cl)cc3Cl)c21 [Compound #46, (Z)-2-(1-(2,4-dichlorobenzyl)-1,4-dihydropyrano[4,3-c]pyrazol-7(6H)-ylidene)ethyl ((4,5-dichlorothiophen-2-yl)sulfonyl)carbamate] | 8 | 2 | – |
| CN(C/C=C1\COCc2cnn(Cc3ccc(Cl)cc3Cl)c21)C(=O)NS(=O)(=O)c1cc(Cl)c(Cl)s1 [Compound #55, (Z)-4,5-dichloro-N-((2-(1-(2,4-dichlorobenzyl)-1,4-dihydropyrano[4,3-c]pyrazol-7(6H)-ylidene)ethyl)(methyl)carbamoyl)thiophene-2-sulfonamide] | 11 | 3 | – |
| O=C(NC/C=C1\CCCc2cnn(Cc3ccc(Cl)cc3Cl)c21)NS(=O)(=O)c1nc2ccccc2s1 [Compound #15, (E)-N-((2-(1-(2,4-dichlorobenzyl)-1,4,5,6-tetrahydro-7H-indazol-7-ylidene)ethyl)carbamoyl)benzo[d]thiazole-2-sulfonamide] | 5 | 1 | – |

The remaining lines, values ahead:

| IC50 [1] [nM] | Ki [2] [nM] | Ki ([2]; unit nM) [nM] | Compound |
| --- | --- | --- | --- |
| 46 | 5 | – | O=C(NC/C(F)=C1\CCc2cnn(Cc3ccc(Cl)cc3Cl)c21)NS(=O)(=O)c1cc(Cl)c(Cl)s1 [Compound #136, (Z)-4,5-dichloro-N-((2-(1-(2,4-dichlorobenzyl)-4,5-dihydro-cyclopenta[c]pyrazol-6(1H)-ylidene)-2-fluoroethyl)carbamoyl)thiophene-2-sulfonamide] |
| 27 | 2 | – | COc1ccc(-n2ncc3c2/C(=C/CNC(=O)NS(=O)(=O)c2cc(Cl)c(Cl)s2)CCC3)cn1 [Compound #107, (E)-4,5-dichloro-N-((2-(1-(6-methoxypyridin-3-yl)-1,4,5,6-tetrahydro-7H-indazol-7-ylidene)ethyl)carbamoyl)thiophene-2-sulfonamide] |
| 14100 | > 10000 | – | O=C(NS(=O)(=O)c1ccc(Cl)cc1)OC/C=C1\c2c(cnn2Cc2ccc(Cl)cc2Cl)CCC1(F)F [Compound #81, (E)-2-(1-(2,4-dichlorobenzyl)-6,6-difluoro-1,4,5,6-tetrahydro-7H-indazol-7-ylidene)ethyl ((4-chlorophenyl)sulfonyl)carbamate] |
| > 20000 | > 10000 | – | O=C(NS(=O)(=O)c1ccc(Cl)cc1)OC/C(F)=C1/COCc2cnn(-c3cccc(C(F)(F)F)c3)c21 [compound 108] |
| 258 | 12 | – | O=C(NC/C=C1\CCCc2cnn(-c3cccc(Br)c3)c21)NS(=O)(=O)c1cc(Cl)c(Cl)s1 [Compound #77, (E)-N-((2-(1-(3-bromophenyl)-1,4,5,6-tetrahydro-7H-indazol-7-ylidene)ethyl)carbamoyl)-4,5-dichlorothiophene-2-sulfonamide] |
| 12 | 10 | – | O=C(NC/C(F)=C1\CCCCc2cnn(Cc3ccc(Cl)cc3Cl)c21)NS(=O)(=O)c1cc(Cl)c(Cl)s1 [Compound #120, (Z)-4,5-dichloro-N-((2-(1-(2,4-dichlorobenzyl)-4,5,6,7-tetrahydrocyclohepta[c]pyrazol-8(1H)-ylidene)-2-fluoroethyl)carbamoyl)thiophene-2-sulfonamide] |
| 20 | 3 | – | O=C(NC/C(F)=C1\CCCc2cnn(-c3ccc(C(F)(F)F)cc3)c21)NS(=O)(=O)c1cc(Cl)c(Cl)s1 [Compound #125, (Z)-4,5-dichloro-N-((2-fluoro-2-(1-(4-(trifluoromethyl)phenyl)-1,4,5,6-tetrahydro-7H-indazol-7-ylidene)ethyl)carbamoyl)thiophene-2-sulfonamide] |
| 554 | 104 | – | O=C(NC/C=C1\CCCc2cnn(Cc3ccc4ccccc4c3)c21)NS(=O)(=O)c1cc(Cl)c(Cl)s1 [Compound #88, (E)-4,5-dichloro-N-((2-(1-(naphthalen-2-ylmethyl)-1,4,5,6-tetrahydro-7H-indazol-7-ylidene)ethyl)carbamoyl)thiophene-2-sulfonamide] |
| 5 | – | 0.4 | O=C(NC/C(F)=C1\COCc2[nH]nc(Cc3ccc(Cl)cc3Cl)c21)NS(=O)(=O)c1cc(Cl)c(Cl)s1 [Compound #147, (E)-4,5-dichloro-N-((2-(3-(2,4-dichlorobenzyl)-1,7-dihydropyrano[3,4-c]pyrazol-4(5H)-ylidene)-2-fluoroethyl)carbamoyl)thiophene-2-sulfonamide] |
